For this assay, the system named is iNKT cells. Nature of the assay: iNKT cell activation in mice after injection of aGC and/or rapamycin, soluble or in nanocarriers (flow cytometry of liver lymphocytes). The class given is in vivo. The note with it: about 4 h after injection. The procedure:
Mice were designated to groups that received PBS alone, soluble aGC, NPaGC, sol aGC+solRAPA, sol aGC+NP RAPA, NPaGC+solRAPA or NPaGC+NP RAPA. Mice were injected at 9 am and at 9.30 AM received BrefeldinA i.v. to prevent release of intracellular cytokines produced. At 1 pm, mice were sacrificed and the liver was perfused with PBS and processed to obtain a single cell suspension enriched for lymphocytes. Cells were stained with cell surface markers for iNKT cells (agc-loaded CD1d tetramers) and T cells receptor (TCRb) and activation marker CD69. The cell suspension was then permeabilized and intracellular cytokine staining was performed for Th1 cytokine IFN-γ, and Th2 cytokines IL-4 and the anti-inflammatory cytokine IL-10. Cells were acquired on a FacsCanto flow cytometer and analyzed on by FlowJo.

As for `CCCCCCCCCCCCCCCCCCCCCCCCCC(=O)N[C@@H](CO[C@H]1O[C@H](CO)[C@H](O)[C@H](O)[C@H]1O)[C@H](O)[C@H](O)CCCCCCCCCCCCCC` [aGC, α-Galactosyl Ceramide (KRN7000)], the “iNKT cell activation as seen by cytokine production and upregulation of CD69 on their surface” value is “activated”.

These data come from patent US20120301510A1, “TOLEROGENIC SYNTHETIC NANOCARRIERS COUPLED TO CD1D-RESTRICTED ANTIGENS AND METHODS OF USE” (Selecta Biosciences, Inc., priority 2011, published 2012).
